Counter-ions that a name gives are not always drawn.

The term IC50 denotes the point on the concentration scale where inhibition reaches its midpoint. What is called CC50 is the concentration that lowers cell viability or growth by half. In general, microsomal CLint refers to the capacity of the preparation to metabolise the compound, expressed as a volume cleared per time. A word on the Papp A→B: it is how fast a substance crosses the layer from the apical side. High values mean fast passage, low ones slow passage. The efflux ratio is the permeability from basolateral to apical divided by that in the opposite direction, in the common usage.

In one data set the target is T1, CDK8/CyclinC (Homo sapiens, UniProt P49336).
T1 construct: purchased ThermoFisher PR7261B
The experiment in a line: LanthaScreen TR-FRET binding to recombinant CDK8 in complex with Cyclin C. Particulars: CDK8/CyclinC 5 nM, Tracer 236 10 nm, average of several runs; read-out: CDK8-CycC IC50. Here is the method:
The ability of the compounds described herein to bind to the CDK8 protein was determined using the LanthaScreen method (ThermoFisher).
The measurements were conducted in a reaction volume (15 μl) using a 384-well plate (Corning, #CLS4513). CDK8/CyclinC enzyme (ThermoFisher, #PR7261B) was mixed with Anti-His-tag-Biotin antibodies (ThermoFisher, #PV6090), Streptavidin-Eu (ThermoFisher, #PV6025), and the resulting mixture was added to the wells of the plate in the amount of 5 μl per well. The final concentrations of the substances were as follows: CDK8/CyclinC—5 nM, Streptavidin-Eu—3 nM, Anti-His-tag-Biotin—3 nM. Staurosporine was used as a control inhibitor, and a 0.1% solution of dimethyl sulfoxide (DMSO) in the reaction buffer containing 250 mM HEPES (pH 7.5), 50 mM MgCl2, 5 mM EGTA, and 0.05% Brij-35 was used as a blank.
Tested inhibitors and controls were added to the corresponding wells in the amount of 5 μl per well. The plate was incubated at room temperature for 20 minutes. […] The final concentration of the tracer was 10 nm. A reaction buffer was used as a negative control instead of the tracer solution. The plate was incubated for 40 minutes at 25° C. Then the TR-FRET signal was measured on a SPARK20 plate reader (Tesap, Switzerland) according to the manufacturer's recommendations, and converted to the amount of kinase-bound tracer. The IC50 value was determined using the SparkControl Magellan 1.2 program (Tesap, Switzerland) by approximating the experimental points using a four-parameter model with the Levenberg-Marquardt optimization (Table 11).

The subject of another data set is MV4-11 cell line. The data set can be described thus: Antiproliferative activity on MV4-11 cell line (AlamarBlue). The format is cell-based. As to conditions: Homo sapiens, 120 h incubation, average of several runs, read-out: MV-4-11 IC50. As to the method: The antiproliferative activity of the CDK8 inhibitors according to the present invention was measured in a cell test on a finite MV4-11 cell line (biphenotypic myelomonocytic leukemia, ATCC© CRL-9591™) using an intravital AlamarBlue dye (ThermoFisher, #DAL1100). The cells were grown on an RPMI-1640 medium (PanEco, #C330p) supplemented with 10% FBS (Gibco, #16140-071), then washed and re-seeded on a culture medium with 10% FBS (Gibco, #16140-071) in 96-well culture plates (Corning, #3599) in the amount of ˜10×10^3 cells per 100 μl of medium per well. The tested compounds were dissolved in DMSO and diluted with 10% FBS (Gibco, #16140-071) to a final concentration ranging from 0 to 100 μM. […] At the end of the incubation period, 15 μl of AlamarBlue reagent (ThermoFisher, #DAL1100) were added to the wells. The contents of the plates were mixed using an orbital shaker (Biosan, Latvia), and incubated further from 3 to 5 hours at 37° C. in an incubator with 5% C02. The number of living cells was detected using a microplate spectrophotometer (Tecan Infinite M200Pro, Switzerland) by measuring a fluorescence signal at an excitation wavelength (λEx) of 540 nm and emission wavelength (λEm) of 590 nm.
The IC50 value was determined using the Magellan 7.2 program (Tesap, Switzerland) by approximating the experimental points using a four-parameter model with the Levenberg-Marquardt optimization (Table 10).
In general terms: Resazurin is reduced to fluorescent resorufin, in cell work by metabolically active cells.

Data set [1] in a line: General cytotoxicity test on HepG2 cells. It is filed as cell-based. As to conditions: human, 72 hours incubation, 200 to 0.78 μM, average of several runs, read-out: Hep-G2 CC50. Here is the method:
The CC50 value was determined in a cytotoxicity test. The experiments were performed using HepG2 cells (hepatocellular carcinoma, ATCC© HB-8065™). The cells were seeded into 96-well plates (Corning, #3599) at a concentration of ˜20×10^3 cells per 100 μl of medium per well, and incubated for 72 hours with the introduced compounds in the concentration range from 200 to 0.78 μM. Cell viability was evaluated according to the method described above.

The nature of data set [2]: Chemical stability in human blood plasma. As to conditions: pooled human blood plasma, 10 μM, 4 hours at 37° C., amount of substance remaining. It is filed as in vitro ADME. As to the method:
Chemical stability of the compounds described herein was determined in human blood plasma.
The determination of stability in human blood plasma was performed using a pooled human blood plasma taken from ten healthy donors. The initial solution of the candidate (10 mM in DMSO) was diluted with the pooled blood plasma to a concentration of 10 μM (test solution). The test solution was incubated in a solid-state thermostat for 4 hours at 37° C. The HPLC method and Agilent1200 chromatograph (Agilent, USA) were used to determine the peak areas of the compounds in the test samples corresponding to the initial test time (before incubation) and the final test time (after incubation in a solid-state thermostat for 4 hours at 37° C.) with preliminary precipitation of proteins using acetonitrile. Chromatographic analysis was performed using a gradient elution mode at a flow rate of 1 ml/min. The amount of substance in the sample expressed in % was determined after the thermostat treatment.

The nature of data set [3]: Enzymatic stability in human liver S9 fractions. As to conditions: pooled human liver S9 fraction; 0.5 mg/ml human liver S9, 10 μm compound, 37° C., pH 7.4. It is filed as in vitro ADME. As to the method: Determining enzymatic stability of the candidates made it possible to evaluate the resistance of the compounds of the present invention to the exposure to biotransformation enzymes.
The enzymatic decomposition rate of the compounds was determined by incubation in a solid-state thermostat at 37° C. of a reaction mixture containing 0.5 mg/ml of pooled S9 fractions of the human liver (XenoTech, USA, cat. # H0610), 10 μm compounds, 2 mM β-nicotinamide adenine dinucleotide (Carbosynth, UK, cat. # NN 10871), and 4 mM magnesium chloride in 0.1 M sodium phosphate buffer (pH=7.4). The reaction was stopped with acetonitrile based on 100 μl of acetonitrile per 100 μl of the reaction mixture. After stopping the reaction, the samples were centrifuged for 10 minutes at 10,000 rpm. The supernatant was analyzed by chromatography using an Agilent1200 chromatograph (Agilent, USA). Chromatographic analysis was performed in a gradient elution mode at a flow rate of 1 ml/min. A logarithm of the peak area of the substance was plotted versus time. The dependent coefficient of this line corresponded to the elimination rate constant (k), which was used to calculate the half-life of the drug (t1/2) and decomposition rate (CLint): […]

Data set [4] can be described thus: Permeability through a monolayer of Caco-2 cells. It is filed as in vitro ADME. As to conditions: human. Here is the method:
Determining the permeability through a monolayer of Caco-2 cells makes it possible to assess the ability of the substances to penetrate biological membranes by means of both active and passive transport.
The intestinal epithelial cells (Caco-2) were cultured using filter inserts ([…], BD Falcon with High Density) for 21 days, after which the monolayer integrity was checked using a Lucifer Yellow dye (Sigma-Aldrich, USA) according to the standard protocol. When setting up an A→B transfer (“intestinal lumen”—“blood flow” transfer), solutions of the tested substances were introduced in pH 6.5 buffer (HBSS, 10 mM HEPES, 15 mM glucose solution) at a concentration of 10 μM into the upper chamber, while the lower chamber was filled with pH 7.4 buffer (HBSS, 10 mM HEPES, 15 mM Glucose solution, 1% BSA). When setting up a B→A transfer (“blood flow”—“intestinal lumen” transfer), the upper chamber was filled with pH 6.5 buffer, and the solutions of the tested substances were introduced in pH 7.4 buffer at a concentration of 10 μM into the lower chamber. Propranolol, which is a high permeability substance, was used as a control.
After incubation for 2 h at 37° C. in an atmosphere containing 5% CO2, the amounts of the tested substances in the upper and lower chambers were determined by the HPLC method using an Agilent1200 chromatograph (Agilent, USA) with preliminary precipitation of proteins with acetonitrile. Chromatographic analysis was performed using a gradient elution mode at a flow rate of 1 ml/min. Peak areas corresponding to the compounds were determined on chromatograms. Based on the peak area values of the compound in calibration standards, compound concentrations in the initial solution and in the samples taken from the wells of the upper and lower chambers were determined.
Permeability through a layer of cells (Papp) was calculated based on the formula:
Papp=(C(t)*V)/(C(θ)*t*Area), where
Papp is the effective permeability constant, m/s V is the solution volume (0.8 ml in the A→B test, and 0.2 ml in the B→A test), ml Area is the surface area of the membrane (0.33 cm^2), cm^2 t is the incubation time (7,200 s), s C(θ) is the concentration of the initial solution, μM C(t) is the concentration of the solution after 2 hours (in the sample from the lower chamber well (test A→B), and in the sample from the upper chamber well (test B→A)), μM.
The value was calculated using the following formula:
efflux=Papp B-A/Papp A-B, where
Papp A-B is the permeability value during direct assay (A→B); Papp B-A is the permeability value during reverse assay (B→A);

T1 sequence (P49336 whole entry): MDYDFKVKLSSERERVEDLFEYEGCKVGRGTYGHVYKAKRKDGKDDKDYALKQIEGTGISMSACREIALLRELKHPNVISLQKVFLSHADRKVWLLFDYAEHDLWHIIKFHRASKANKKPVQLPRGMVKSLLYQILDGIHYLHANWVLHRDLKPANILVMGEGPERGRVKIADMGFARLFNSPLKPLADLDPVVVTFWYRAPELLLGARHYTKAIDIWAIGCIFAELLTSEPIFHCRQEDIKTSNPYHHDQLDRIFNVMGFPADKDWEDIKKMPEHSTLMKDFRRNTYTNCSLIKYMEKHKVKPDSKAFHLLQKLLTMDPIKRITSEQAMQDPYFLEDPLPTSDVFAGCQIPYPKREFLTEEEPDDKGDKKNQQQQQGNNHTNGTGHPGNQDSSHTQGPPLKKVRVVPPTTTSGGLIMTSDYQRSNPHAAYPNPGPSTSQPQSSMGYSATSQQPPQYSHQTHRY
T1 sequence (P24863 whole entry partner): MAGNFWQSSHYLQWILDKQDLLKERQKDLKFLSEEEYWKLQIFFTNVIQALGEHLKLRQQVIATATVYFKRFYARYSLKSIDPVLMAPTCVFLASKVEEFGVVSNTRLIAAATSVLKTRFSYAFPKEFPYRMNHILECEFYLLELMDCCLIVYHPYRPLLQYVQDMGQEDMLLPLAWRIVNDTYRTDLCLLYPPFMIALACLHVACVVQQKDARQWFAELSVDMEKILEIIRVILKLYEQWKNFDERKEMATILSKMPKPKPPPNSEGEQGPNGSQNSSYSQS

For the compound `CN1CCN(C(=O)c2ccc3cc(CCNc4cnnc5ccc(C#N)cc45)ccc3c2)CC1` [Compound 4, 4-((2-(6-(4-methylpiperazine-1-carbonyl)naphth-2-yl)ethyl)amino) cinnoline-6-carbonitryl], the IC50 on CDK8/CyclinC is 404 nM.
For `CC(C)N1CCN(C(=O)c2ccc3cc(CCNc4ccnc5ccc(C#N)cc45)ccc3c2)CC1` [Compound 7], the IC50 in the data set on MV4-11 cell line was determined as 91 nM; at CDK8/CyclinC, 5.77 nM. For the same compound, the cytotoxic concentration (CC50) at 72 h in data set [1] was found to be 8900 nM.
In the case of `CN1CCN(C(=O)c2ccc3cc(CCOc4ccnc5ccc(C#N)cc45)ccc3c2)CC1` [Compound 8, 4-(2-(6-(4-methylpiperazine-1-carbonyl)naphth-2-yl)ethoxy) quinoline-6-carbonitryl], the IC50 was found to be 602 nM in the data set with MV4-11 cell line and 58.2 nM at CDK8/CyclinC. The cytotoxic concentration (CC50) at 72 h in data set [1] amounted to 11200 nM.
On to `CN1CCN(C(=O)c2ccc3cc(CCNc4c(Cl)cnc5ccc(C#N)cc45)ccc3c2)CC1` [Compound 9, 3-chloro-4-((2-(6-(4-methylpiperazine-1-carbonyl)naphth-2-yl)ethyl)amino) quinoline-6-carbonitryl], for which, in data set [2], the “Stability in blood plasma, %” value is 91.1%. Moreover, the IC50 in the data set with MV4-11 cell line was determined as 106 nM; at CDK8/CyclinC it was 20.5 nM. In addition, the CC50 at 72 h in data set [1] came to 47300 nM.
As for `CN1CCN(C(=O)c2ccc3cc(CCNc4c(Cl)cnc5ccc(C#N)cc45)ccc3c2)CC1` [Compound 9a, 3-chloro-4-((2-(6-(4-methylpiperazine-1-carbonyl)naphth-2-yl)ethyl)amino) quinoline-6-carbonitryl dihydrochloride], the “Stability in blood plasma, %” value in data set [2] (dihydrochloride) was determined as 87.9%.
As to `CN1CCN(C(=O)c2ccc3cc(CCNc4ccnc5ncc(C#N)cc45)ccc3c2)CC1` [Compound 11, 5-((2-(6-(4-methylpiperazine-1-carbonyl)naphth-2-yl)ethyl)amino)-1,8-naphthyridin-3-carbonitryl], the figures for the IC50 with MV4-11 cell line and on CDK8/CyclinC were 3300 nM and 655 nM, respectively. The half-maximal cytotoxic concentration (CC50) at 72 h in data set [1] is 85100 nM.
In the case of `CCN1CCN(C(=O)c2ccc3cc(CCNc4ccnc5ccc(C#N)cc45)ccc3c2)CC1` [Compound 12], the IC50 in the data set on MV4-11 cell line was determined as 79 nM; at CDK8/CyclinC, 6.54 nM. For the same compound, the CC50 at 72 h in data set [1] worked out at 10600 nM.
In the case of `N#Cc1ccc2nccc(NCCc3ccc4cc(C(=O)N5CCOCC5)ccc4c3)c2c1` [Compound 13], the IC50 in the data set with MV4-11 cell line came to 57 nM; at CDK8/CyclinC, 4.04 nM. In addition, the CC50 at 72 h in data set [1] was around 15000 nM.
`N#Cc1ccc2nccc(NCCc3ccc4cc(C(=O)N5CCN(CC(F)(F)F)CC5)ccc4c3)c2c1` [Compound 17, 4-((2-(6-(4-(2,2,2-trifluoroethyl)piperazine-4-carbonyl)naphth-2-yl)ethyl)amino)quinoline-6-carbonitryl]: the IC50 in the data set on MV4-11 cell line is 113 nM; on CDK8/CyclinC, 28.5 nM. Besides, the CC50 at 72 h in data set [1] came to 17900 nM.
`N#Cc1ccc2nccc(NCCc3ccc4cc(C(=O)N5CCNCC5)ccc4c3)c2c1` [Compound 18, 4-((2-(6-(piperazine-1-carbonyl)naphth-2-yl)ethyl)amino)quinoline-6-carbonitryl]: the “Stability in blood plasma, %” value in data set [2] turned out to be 100%. The compound also displayed a microsomal CLint at 10 μM in data set [3] of 4.4 µL/min/mg. Moreover, the Papp A→B at 2 h, 10 μM in data set [4] (A→B, pH 6.5 upper / pH 7.4 lower chamber, 2 h at 37° C.) stood at 22.4 ×10⁻⁶ cm/s. The efflux ratio at 2 h, 10 μM in data set [4] (Papp B-A/Papp A-B, 2 h) was 0.3. Besides, in the data set on MV4-11 cell line, the IC50 came out at 19 nM. Further, in data set [1], the CC50 at 72 h worked out at 11600 nM.
In the case of `CN1CCN(C(=O)c2ccc3cc(CCSc4ccnc5ccc(C#N)cc45)ccc3c2)CC1` [Compound 19, 4-((2-(6-(4-methylpiperazine-1-carbonyl)naphth-2-yl)ethyl)thio) quinoline-6-carbonitryl], the IC50 with MV4-11 cell line was 2610 nM; on CDK8/CyclinC, 118 nM. The CC50 at 72 h in data set [1] was above 200000 nM.

The values above are taken from patent US20220098160A1, “NOVEL CDK 8/19 INHIBITORS” (BIOCAD, priority 2018, published 2022).
